The supplement of paper PMC6045584
± gives the standard deviation of the averaged measurements.

How the values were obtained:
[1] = compound: CN(C)C/C=C/C(=O)Nc1cc2c(Nc3ccc(F)c(Cl)c3)ncnc2cc1O[C@H]1CCOC1 [AFATINIB]; assay: surviving fraction relative to DMSO-only wells; higher = less growth inhibition; details: exposure time: 5 days
In short: (§1)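 Five days of continuous inhibitor exposure, at 0.5, 1, 5, 10, 50, 100, 500 and 1000 nM, followed a 24-hour period after log-phase tumour cell lines were seeded at 250–500 cells per well in 384-well plates. Surviving fraction was derived from CellTiter-Glo luminescence relative to the median of DMSO-only wells. Plates were read after 10 minutes at room temperature, and lines screened three times were kept only if replicate Pearson r >0.7 and median Z' >0.3.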

[2] = compound: Nc1nc2[nH]cnc2c(=S)[nH]1 [TIOGUANINE]; assay: as above; details: exposure time: 5 days
In short: as §1

Row | Test System | surviving fraction ([1]; 0.5 nM) | surviving fraction ([1]; 1 nM) | surviving fraction ([1]; 5 nM) | surviving fraction ([1]; 10 nM) | surviving fraction ([1]; 50 nM) | surviving fraction ([1]; 100 nM) | surviving fraction ([1]; 500 nM) | surviving fraction ([1]; 1000 nM) | surviving fraction ([2]; 0.5 nM) | surviving fraction ([2]; 1 nM) | surviving fraction ([2]; 5 nM) | surviving fraction ([2]; 10 nM) | surviving fraction ([2]; 50 nM) | surviving fraction ([2]; 100 nM) | surviving fraction ([2]; 500 nM) | surviving fraction ([2]; 1000 nM)
1 | CHLA90 AUTONOMIC GANGLIA | 0.991 ± 0.042 | 0.981 ± 0.056 | 0.839 ± 0.063 | 0.849 ± 0.077 | 0.819 ± 0.017 | 0.796 ± 0.052 | 0.775 ± 0.051 | 0.593 ± 0.036 | 0.95 ± 0.029 | 0.99 ± 0.04 | 1 ± 0.038 | 0.948 ± 0.034 | 0.96 ± 0.043 | 0.913 ± 0.08 | 0.88 ± 0.057 | 0.912 ± 0.048
2 | VP229 BREAST | 1.1 ± 0.11 | 1.03 ± 0.13 | 0.645 ± 0.079 | 0.586 ± 0.076 | 0.324 ± 0.011 | 0.273 ± 0.04 | 0.272 ± 0.021 | 0.165 ± 0.025 | 1.07 ± 0.089 | 1.06 ± 0.053 | 1.03 ± 0.031 | 1.04 ± 0.057 | 1.11 ± 0.14 | 1.1 ± 0.012 | 1.14 ± 0.17 | 1.08 ± 0.15
3 | NCIH441 LUNG | 1.15 ± 0.086 | 1.11 ± 0.042 | 1.1 ± 0.1 | 1.04 ± 0.04 | 1.03 ± 0.042 | 0.851 ± 0.11 | 0.686 ± 0.027 | 0.409 ± 0.017 | 0.963 ± 0.053 | 1.03 ± 0.082 | 0.971 ± 0.032 | 0.955 ± 0.079 | 1.03 ± 0.024 | 1.02 ± 0.017 | 1.01 ± 0.091 | 0.976 ± 0.058
4 | SCC003 HEADNECK | 1.11 ± 0.093 | 1.04 ± 0.045 | 0.941 ± 0.1 | 0.901 ± 0.095 | 0.636 ± 0.056 | 0.557 ± 0.0066 | 0.518 ± 0.068 | 0.425 ± 0.058 | 0.892 ± 0.14 | 1 ± 0.1 | 1.01 ± 0.033 | 0.99 ± 0.094 | 0.998 ± 0.098 | 1.1 ± 0.12 | 0.988 ± 0.047 | 0.797 ± 0.027
5 | RDES SOFT TISSUE | 1.33 ± 0.2 | 1.29 ± 0.15 | 1.17 ± 0.19 | 1.3 ± 0.31 | 0.988 ± 0.18 | 1.16 ± 0.19 | 1.13 ± 0.22 | 1.11 ± 0.019 | 1.19 ± 0.17 | 1.42 ± 0.042 | 1.33 ± 0.06 | 1.35 ± 0.13 | 1.25 ± 0.17 | 1.19 ± 0.12 | 1.07 ± 0.012 | 1.28 ± 0.15
6 | SUM159 BREAST | 1.07 ± 0.02 | 1.03 ± 0.061 | 1.07 ± 0.023 | 0.942 ± 0.13 | 0.943 ± 0.15 | 0.886 ± 0.27 | 0.896 ± 0.23 | 0.867 ± 0.27 | 1.07 ± 0.14 | 1.02 ± 0.025 | 1.02 ± 0.041 | 1.03 ± 0.069 | 1.04 ± 0.075 | 0.97 ± 0.077 | 1.05 ± 0.084 | 1.008 ± 0.006
7 | SCC90 HEADNECK | 1 ± 0.04 | 0.907 ± 0.086 | 0.621 ± 0.036 | 0.495 ± 0.028 | 0.42 ± 0.08 | 0.351 ± 0.0068 | 0.288 ± 0.011 | 0.235 ± 0.011 | 0.874 ± 0.047 | 0.873 ± 0.057 | 1.16 ± 0.12 | 1.09 ± 0.12 | 1.03 ± 0.17 | 1.08 ± 0.15 | 0.86 ± 0.045 | 0.743 ± 0.099
8 | MDAMB157 BREAST | 0.993 ± 0.14 | 0.975 ± 0.048 | 0.96 ± 0.09 | 0.976 ± 0.16 | 0.979 ± 0.069 | 0.944 ± 0.12 | 0.85 ± 0.097 | 0.526 ± 0.06 | 0.867 ± 0.072 | 0.857 ± 0.052 | 0.958 ± 0.013 | 0.921 ± 0.071 | 0.986 ± 0.078 | 0.961 ± 0.085 | 0.88 ± 0.055 | 0.89 ± 0.039
9 | ZR751 BREAST | 1.14 ± 0.15 | 0.982 ± 0.17 | 0.979 ± 0.058 | 0.926 ± 0.13 | 0.746 ± 0.097 | 0.87 ± 0.1 | 0.671 ± 0.083 | 0.536 ± 0.068 | 1.01 ± 0.07 | 0.969 ± 0.16 | 0.82 ± 0.16 | 0.897 ± 0.064 | 1.12 ± 0.13 | 1.02 ± 0.16 | 1.04 ± 0.013 | 1.07 ± 0.15
10 | DU4475 BREAST | 1.05 ± 0.26 | 1.08 ± 0.31 | 0.851 ± 0.034 | 1.11 ± 0.25 | 1.17 ± 0.15 | 0.997 ± 0.089 | 1.08 ± 0.25 | 0.788 ± 0.042 | 0.746 ± 0.054 | 1 ± 0.31 | 0.784 ± 0.2 | 0.798 ± 0.17 | 0.687 ± 0.23 | 0.743 ± 0.24 | 0.721 ± 0.4 | 0.704 ± 0.29
11 | SYO1 SYNOVIAL | 0.996 ± 0.057 | 1.03 ± 0.027 | 0.948 ± 0.059 | 0.995 ± 0.026 | 0.95 ± 0.017 | 0.952 ± 0.042 | 0.606 ± 0.035 | 0.324 ± 0.02 | 0.941 ± 0.043 | 0.925 ± 0.042 | 0.917 ± 0.075 | 0.896 ± 0.021 | 0.785 ± 0.029 | 0.645 ± 0.043 | 0.411 ± 0.022 | 0.354 ± 0.028
12 | JIMT1 BREAST | 0.987 ± 0.023 | 0.994 ± 0.029 | 0.96 ± 0.015 | 0.909 ± 0.044 | 0.732 ± 0.028 | 0.687 ± 0.049 | 0.603 ± 0.012 | 0.301 ± 0.014 | 0.966 ± 0.018 | 0.975 ± 0.023 | 0.984 ± 0.034 | 0.9947 ± 0.0086 | 1.05 ± 0.015 | 1.03 ± 0.025 | 0.9495 ± 0.0077 | 0.912 ± 0.0067
13 | HS57T BREAST | 1.05 ± 0.053 | 1.03 ± 0.056 | 1.13 ± 0.023 | 1.04 ± 0.051 | 1.11 ± 0.077 | 1.09 ± 0.076 | 0.787 ± 0.024 | 0.423 ± 0.057 | 0.9547 ± 0.0035 | 1.02 ± 0.087 | 0.99 ± 0.03 | 0.988 ± 0.029 | 0.928 ± 0.04 | 1.03 ± 0.06 | 0.928 ± 0.016 | 0.945 ± 0.064
14 | HCC1806 BREAST | 1.1 ± 0.084 | 1 ± 0.038 | 0.893 ± 0.071 | 0.726 ± 0.075 | 0.57 ± 0.045 | 0.586 ± 0.028 | 0.401 ± 0.036 | 0.343 ± 0.03 | 0.989 ± 0.061 | 1.1 ± 0.059 | 1.08 ± 0.11 | 1.08 ± 0.12 | 1.13 ± 0.15 | 1.13 ± 0.19 | 1.03 ± 0.12 | 0.952 ± 0.061
15 | HOS BONE | 1.01 ± 0.027 | 1.03 ± 0.012 | 1.017 ± 0.0066 | 1.01 ± 0.016 | 1.02 ± 0.014 | 1.02 ± 0.023 | 0.979 ± 0.048 | 0.858 ± 0.025 | 1 ± 0.011 | 0.9977 ± 0.0091 | 1.004 ± 0.0085 | 1.02 ± 0.032 | 1.05 ± 0.033 | 1.038 ± 0.0061 | 0.75 ± 0.037 | 0.612 ± 0.016
16 | HCC1395 BREAST | 1.05 ± 0.14 | 1.14 ± 0.1 | 1.03 ± 0.043 | 1.13 ± 0.046 | 1.01 ± 0.15 | 1.12 ± 0.026 | 1.05 ± 0.23 | 0.92 ± 0.12 | 0.999 ± 0.06 | 1.12 ± 0.064 | 0.968 ± 0.1 | 1.11 ± 0.054 | 1.05 ± 0.039 | 1.16 ± 0.04 | 1.11 ± 0.086 | 1.09 ± 0.081
17 | NOS1 BONE | 0.993 ± 0.2 | 0.997 ± 0.014 | 1.05 ± 0.066 | 0.947 ± 0.04 | 1.13 ± 0.11 | 0.983 ± 0.1 | 0.238 ± 0.019 | 0.096 ± 0.0027 | 1.12 ± 0.037 | 1.14 ± 0.028 | 1.15 ± 0.093 | 1.17 ± 0.075 | 1.23 ± 0.1 | 1.19 ± 0.058 | 1.06 ± 0.099 | 1.05 ± 0.065
18 | MDAMB134 BREAST | 1.07 ± 0.046 | 0.997 ± 0.15 | 1.24 ± 0.25 | 0.967 ± 0.15 | 1.09 ± 0.078 | 0.886 ± 0.076 | 0.741 ± 0.031 | 0.725 ± 0.12 | 0.993 ± 0.11 | 1.04 ± 0.12 | 0.909 ± 0.017 | 0.928 ± 0.11 | 1.04 ± 0.0028 | 1.1 ± 0.17 | 0.88 ± 0.049 | 0.858 ± 0.073
19 | MDAMB453 BREAST | 1.08 ± 0.061 | 1 ± 0.045 | 1.05 ± 0.064 | 1.05 ± 0.029 | 0.777 ± 0.076 | 0.668 ± 0.091 | 0.576 ± 0.027 | 0.41 ± 0.026 | 1.01 ± 0.073 | 0.999 ± 0.053 | 1.04 ± 0.027 | 1.02 ± 0.04 | 1.08 ± 0.03 | 1.03 ± 0.029 | 0.98 ± 0.13 | 0.864 ± 0.09
20 | ASKA SYNOVIAL | 1.13 ± 0.029 | 1.09 ± 0.035 | 1.15 ± 0.083 | 1.1 ± 0.11 | 1.15 ± 0.029 | 1.14 ± 0.028 | 0.78 ± 0.023 | 0.404 ± 0.023 | 1.07 ± 0.051 | 1.09 ± 0.058 | 1.13 ± 0.08 | 1.08 ± 0.032 | 1.1 ± 0.068 | 1.073 ± 0.007 | 1.07 ± 0.044 | 1.03 ± 0.011
